Test results as given in US20050203151A1, “Novel compounds, compositions and uses thereof for treatment of metabolic disorders and related conditions” (Kalypsys, Inc., priority 2003, published 2005).
Where two headings read alike, the source gives them in different places.

Key:
Type in all cases: cell-based
PPAR-gamma = molecular target: T1, PPAR-gamma (Homo sapiens, UniProt P37231); experiment: human PPAR-GAL4 chimera luciferase reporter assay in CV-1 cells, PPAR-gamma
T1 construct: expressed in transfected cells; host or cells: CV-1 cells
T1 sequence (P37231 238-503 limits assumed): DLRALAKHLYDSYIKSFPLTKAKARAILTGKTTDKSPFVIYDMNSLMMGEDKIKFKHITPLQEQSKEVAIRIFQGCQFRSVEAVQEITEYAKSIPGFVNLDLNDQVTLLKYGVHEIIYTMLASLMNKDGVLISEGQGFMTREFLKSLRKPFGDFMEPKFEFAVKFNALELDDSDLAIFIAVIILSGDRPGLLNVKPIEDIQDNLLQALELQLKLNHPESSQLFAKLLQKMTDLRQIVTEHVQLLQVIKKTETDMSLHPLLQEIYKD
Procedure: (§1) The compounds were evaluated in a cell-based assay to determine their human PPAR activity. The plasmids for human PPAR-GAL4 chimeras were prepared by fusing amplified cDNAs encoding the LBDs of PPARs to the C-terminal end of the yeast GAL4 DNA binding domain. CV-1 cells were grown and transiently transected with PerFectin (GTS, San Diego, Calif.) according to the manufacturer's protocol along with a luciferase reporter. Eight hours after transfection, 50 μl of cells were replated into 384 well plates ([…]). Sixteen hours after replating, cells were treated with either compounds or 1% DMSO for 24 hours. Luciferase activity was then assayed with Britelite (Perkin Elmer) following the manufacturer's protocol and measured with either the Perkin Elmer Viewlux or Molecular Devices Acquest.
(§2) Compounds may be screened for functional potency in transient transfection assays in CV-1 cells for their ability to activate the PPAR subtypes (transactivation assay). A previously established chimeric receptor system was utilized to allow comparison of the relative transcriptional activity of the receptor subtypes on the same synthetic response element and to prevent endogenous receptor activation from complicating the interpretation of results. See, for example, Lehmann, J. M.; Moore, L. B.; Smith-Oliver, T. A; Wilkinson, W. O.; Willson, T. M.; Kliewer, S. A., An antidiabetic thiazolidinedione is a high affinity ligand for peroxisome proliferator-activated receptory γ (PPARγ), J. Biol. Chem., 1995, 270, 12953-6. The ligand binding domains for murine and human PPAR-alpha, PPAR-gamma, and PPAR-delta are each fused to the yeast transcription factor GAL4 DNA binding domain. CV-1 cells were transiently transfected with expression vectors for the respective PPAR chimera along with a reporter construct containing four or five copies of the GAL4 DNA binding site driving expression of luciferase. After 8-16 h, the cells are replated into multi-well assay plates and the media is exchanged to phenol-red free DME medium supplemented with 5% delipidated calf serum. 4 hours after replating, cells were treated with either compounds or 1% DMSO for 20-24 hours. Luciferase activity was then assayed with Britelite (Perkin Elmer) following the manufacturer's protocol and measured with either the Perkin Elmer Viewlux or Molecular Devices Acquest (see, for example, Kliewer, S. A., et. al. Cell 1995, 83, 813-819). Rosiglitazone is used as a positive control in the hPPAR-γ assay. Wy-14643 and GW7647 is used as a positive control in the hPPAR-α assay. GW501516 is used as the positive control in the hPPAR-δ assay.

PPAR-delta = molecular target: T2, PPAR-delta (Homo sapiens, UniProt Q03181); experiment: human PPAR-GAL4 chimera luciferase reporter assay in CV-1 cells, PPAR-delta
T2 construct: expressed in transfected cells; host or cells: CV-1 cells
T2 sequence (Q03181 211-439 limits assumed): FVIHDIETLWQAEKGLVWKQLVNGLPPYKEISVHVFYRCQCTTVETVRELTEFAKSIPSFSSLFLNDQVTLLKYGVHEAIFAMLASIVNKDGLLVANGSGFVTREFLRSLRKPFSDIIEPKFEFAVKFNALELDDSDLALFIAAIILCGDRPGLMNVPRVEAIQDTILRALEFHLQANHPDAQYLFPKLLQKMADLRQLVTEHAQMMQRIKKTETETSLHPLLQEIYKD
Procedure: as §1, §2

PPAR-alpha = molecular target: T3, PPAR-alpha (Homo sapiens, UniProt Q07869); experiment: human PPAR-GAL4 chimera luciferase reporter assay in CV-1 cells, PPAR-alpha
T3 construct: expressed in transfected cells; host or cells: CV-1 cells
T3 sequence (Q07869 239-466 limits assumed): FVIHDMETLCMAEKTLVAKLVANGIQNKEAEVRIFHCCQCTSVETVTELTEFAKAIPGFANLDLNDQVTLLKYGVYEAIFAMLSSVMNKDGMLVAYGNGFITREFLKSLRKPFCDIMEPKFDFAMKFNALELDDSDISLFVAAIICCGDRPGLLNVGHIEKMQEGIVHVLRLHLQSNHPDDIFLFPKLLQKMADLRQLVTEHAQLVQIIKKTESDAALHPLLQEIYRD
Procedure: as §1, §2

[1] = Table 2, Examples 1-10, read-out: PPAR γ EC50
[2] = Table 2, Examples 1-10, read-out: PPAR δ EC50
[3] = Table 2, Examples 1-10, read-out: PPAR α EC50
[4] = Table 3, Examples 11-25, read-out: PPAR gamma (EC50)
[5] = Table 3, Examples 11-25, read-out: PPAR delta (EC50)
[6] = Table 3, Examples 11-25, read-out: PPAR alpha (EC50)

SMILES | EC50 (PPAR-gamma; [1]) [µM] | EC50 (PPAR-delta; [2]) [µM] | EC50 (PPAR-alpha; [3]) [µM] | EC50 (PPAR-gamma; [4]) [µM] | EC50 (PPAR-delta; [5]) [µM] | EC50 (PPAR-alpha; [6]) [µM]
Cc1nc(-c2ccc(C(F)(F)F)cc2)sc1CSc1cccc(CC(=O)O)c1 [Example 2, {3-[4-methyl-2-(4-trifluoromethyl-phenyl)-thiazol-5-ylmethylsulfanyl]-phenyl}-acetic acid] | 1 to 10 | < 1 | < 1 |  |  | 
Cc1nc(-c2ccc(C(F)(F)F)cc2)sc1Cn1ccc2c(C(=O)O)cccc21 [Example 9, 1-[4-methyl-2-(4-trifluoromethyl-phenyl)-thiazol-5-ylmethyl]-1H-indole-4-carboxylic acid] | > 10 | > 10 | > 10 |  |  | 
Cc1nc(-c2ccc(C(F)(F)F)cc2)sc1COc1ccc2[nH]cc(CC(=O)O)c2c1 [Example 7, {5-[4-Methyl-2-(4-trifluoromethyl-phenyl)-thiazol-5-ylmethoxy]-1H-indol-3-yl}-acetic acid] | < 1 | < 1 | > 10 |  |  | 
Cc1nc(-c2ccc(C(F)(F)F)cc2)sc1Cn1cc(C(=O)O)c2ccccc21 [Example 8] | > 10 | > 10 | > 10 |  |  | 
Cc1nc(-c2ccc(C(F)(F)F)cc2)sc1Cn1cc(CC(=O)O)c2ccccc21 [Example 24, {1-[4-Methyl-2-(4-trifluoromethyl-phenyl)-thiazol-5-ylmethyl]-1H-indol-3-yl}acetic acid] |  |  |  | 5 to 100 | < 5 | 5 to 100
Cc1nc(-c2ccc(C(F)(F)F)cc2)sc1Cn1ccc2cc(OC(C)(C)C(=O)O)ccc21 [Example 15, 2-Methyl-2-{1-[4-methyl-2-(4-trifluoromethyl-phenyl)-thiazol-5-ylmethyl]-1H-indol-5-yloxy}-propionic acid] |  |  |  | 5 to 100 | < 5 | < 5
Cc1nc(-c2ccc(C(F)(F)F)cc2)sc1Cn1ccc2cc(C(=O)O)ccc21 [Example 10, 1-[4-methyl-2-(4-trifluoromethyl-phenyl)-thiazol-5-ylmethyl]-1H-indole-5-carboxylic acid] | > 10 | > 10 | > 10 |  |  | 
Cc1nc(-c2ccc(C(F)(F)F)cc2)sc1Cn1ccc2c(OCC(=O)O)cccc21 [Example 11, {1-[4-Methyl-2-(4-trifluoromethyl-phenyl)-thiazol-5-ylmethyl]-1H-indol-4-yloxy}acetic acid] |  |  |  | > 100 | > 100 | > 100
Cc1nc(-c2ccc(C(F)(F)F)cc2)sc1Cn1ccc2ccc(OC(C)(C)C(=O)O)cc21 [Example 16, 2-Methyl-2-{1-[4-methyl-2-(4-trifluoromethyl-phenyl)-thiazol-5-ylmethyl]-1H-indol-6-yloxy}-propionic acid] |  |  |  | 5 to 100 | < 5 | 5 to 100

The next lines start with the values.

EC50 (PPAR-gamma; [1]) [µM] | EC50 (PPAR-delta; [2]) [µM] | EC50 (PPAR-alpha; [3]) [µM] | EC50 (PPAR-gamma; [4]) [µM] | EC50 (PPAR-delta; [5]) [µM] | EC50 (PPAR-alpha; [6]) [µM] | SMILES
 |  |  | 5 to 100 | 5 to 100 | < 5 | Cc1nc(-c2ccc(C(F)(F)F)cc2)sc1CCn1ccc2ccc(OC(C)(C)C(=O)O)cc21 [Example 23, 2-Methyl-2-(1-{2-[4-methyl-2-(4-trifluoromethyl-phenyl)-thiazol-5-yl]-ethyl}-1H-indol-6-yloxy)-propionic acid]
 |  |  | 5 to 100 | 5 to 100 | 5 to 100 | Cc1nc(-c2ccc(C(F)(F)F)cc2)sc1Cn1ccc2cc(OCC(=O)O)ccc21 [Example 12, {1-[4-Methyl-2-(4-trifluoromethyl-phenyl)-thiazol-5-ylmethyl]-1H-indol-5-yloxy}-acetic acid]
 |  |  | 5 to 100 | 5 to 100 | 5 to 100 | Cc1nc(-c2ccc(C(F)(F)F)cc2)sc1CCn1ccc2cc(OC(C)(C)C(=O)O)ccc21 [Example 21, 2-Methyl-2-(1-{2-[4-methyl-2-(4-trifluoromethyl-phenyl)-thiazol-5-yl]-ethyl}-1H-indol-5-yloxy)-propionic acid]
 |  |  | 5 to 100 | < 5 | 5 to 100 | Cc1nc(-c2ccc(C(F)(F)F)cc2)sc1CCN1CCc2ccc(OCC(=O)O)cc21 [Example 25, (1-{2-[4-Methyl-2-(4-trifluoromethyl-phenyl)-thiazol-5-yl]-ethyl}-2,3-dihydro-1H-indol-6-yloxy)-acetic acid]
 |  |  | 5 to 100 | 5 to 100 | 5 to 100 | Cc1nc(-c2ccc(C(F)(F)F)cc2)sc1CCn1ccc2ccc(OCC(=O)O)cc21 [Example 22, (1-{2-[4-Methyl-2-(4-trifluoromethyl-phenyl)-thiazol-5-yl]-ethyl}-1H-indol-6-yloxy)-acetic acid]
 |  |  | 5 to 100 | < 5 | 5 to 100 | Cc1nc(-c2ccc(C(F)(F)F)cc2)sc1Cn1ccc2ccc(OCC(=O)O)cc21 [Example 13, {1-[4-Methyl-2-(4-trifluoromethyl-phenyl)-thiazol-5-ylmethyl]-1H-indol-6-yloxy}-acetic acid]
 |  |  | 5 to 100 | 5 to 100 | < 5 | Cc1nc(-c2ccc(C(F)(F)F)cc2)sc1CCN1CCc2ccc(OC(C)(C)C(=O)O)cc21 [Example 20, 2-Methyl-2-(1-{2-[4-methyl-2-(4-trifluoromethyl-phenyl)-thiazol-5-yl]-ethyl}-2,3-dihydro-1H-indol-6-yloxy)-propionic acid]
1 to 10 | < 1 | > 10 |  |  |  | Cc1nc(-c2ccc(C(F)(F)F)cc2)sc1COc1ccc2ccn(CC(=O)O)c2c1 [Example 5, {6-[4-methyl-2-(4-trifluoromethyl-phenyl)-thiazol-5-ylmethoxy]-indol-1-yl}-acetic acid]
 |  |  | 5 to 100 | < 5 | < 5 | Cc1nc(-c2ccc(C(F)(F)F)cc2)sc1CCN1CCc2cc(OC(C)(C)C(=O)O)ccc21 [Example 19, 2-Methyl-2-(1-{2-[4-methyl-2-(4-trifluoromethyl-phenyl)-thiazol-5-yl]-ethyl}-2,3-dihydro-1H-indol-5-yloxy)-propionic acid]
 |  |  | 5 to 100 | 5 to 100 | 5 to 100 | Cc1nc(-c2ccc(C(F)(F)F)cc2)sc1CCN1CCc2cc(OCC(=O)O)ccc21 [Example 17, (1-{2-[4-Methyl-2-(4-trifluoromethyl-phenyl)-thiazol-5-yl]-ethyl}-2,3-dihydro-1H-indol-5-yloxy)-acetic acid]
> 10 | > 10 | > 10 |  |  |  | Cc1nc(-c2ccc(C(F)(F)F)cc2)sc1COc1ccc2c(ccn2CC(=O)O)c1 [Example 3, {5-[4-methyl-2-(4-trifluoromethyl-phenyl)-thiazol-5-ylmethoxy]-indol-1-yl}-acetic acid]
 |  |  | 5 to 100 | 5 to 100 | 5 to 100 | Cc1nc(-c2ccc(C(F)(F)F)cc2)sc1CCn1ccc2cc(OCC(=O)O)ccc21 [Example 18, (1-{2-[4-Methyl-2-(4-trifluoromethyl-phenyl)-thiazol-5-yl]-ethyl}-1H-indol-5-yloxy)-acetic acid]
1 to 10 | < 1 | < 1 |  |  |  | Cc1nc(-c2ccc(C(F)(F)F)cc2)sc1COc1cccc(CC(=O)O)c1 [Example 1, {3-[4-methyl-2-(4-trifluoromethyl-phenyl)-thiazol-5-ylmethoxy]-phenyl}-acetic acid]
